From patent US20090136977A1, “NOVEL TARGETS FOR ALZHEIMER'S DISEASE” (priority 2007, published 2009)

Experiments:
ATase2 mRNA = assay: Real-time quantitative PCR of ATase2 mRNA after ceramide treatment; type: cell-based, human; conditions: H4 and SH-SY5Y cells; C6-ceramide 10 μM; seen as early as 4 hours, still evident after 4 days
Description: (§1) Chinese Hamster Ovary (CHO) cells were grown in DMEM (Gibco BRL) supplemented with 10% fetal bovine serum (FBS) and penicillin/streptomycin (Mediatech, Inc., Herndon, Va.) as described before (Puglielli et al., 2001, Nat. Cell Biol. 3: 905-912; Puglielli et al., 2003, J. Biol. Chem. 278: 19777-19783). Cells were maintained in a humidified atmosphere with 5% CO2. For ceramide treatment, C6-ceramide (simply called “ceramide”) was administered in the absence of serum and at the final concentration of 10 μM; treatment was started when cells were ˜80% confluent and carried out for the time specified. […]
(§2) RNA quantification was performed by real-time PCR in an ABI PRISM® 7000 Sequence Detection System using SYBR® Green PCR Master Mix (Applied Biosystems). […] Delta-delta Ct values were normalized with those obtained from the amplification of GAPDH and were expressed as fold-change over control. […]
(§3) The 4-hour treatment was performed in the presence of 0.5% fetal bovine serum whereas the 4-days treatment was performed in the presence of 10% fetal bovine serum, as previously described (Puglielli et al., 2003, J. Biol. Chem. 278: 19777-19783; Costantini et al., 2007, Biochem. J. 407: 383-395)). Results are expressed as fold ±S.D. of control (no treatment). […] Results are expressed as fold ±S.D. of age-matched controls.

ATase1 mRNA = assay: Real-time quantitative PCR of ATase1 mRNA after ceramide treatment; type: cell-based, human; conditions: H4 and SH-SY5Y cells; C6-ceramide 10 μM; seen as early as 4 hours, still evident after 4 days
Description: as §1, §2, §3

BACE1 = conditions: different cell lines; Costantini et al., 2005; cited from earlier work

CCCCCCCCCCCCC/C=C/[C@@H](O)[C@H](CO)NC(=O)CCCCC [ceramide, C6-ceramide]
mRNA levels of ATase2 (transcription) (ATase2 mRNA): marked activation of transcription
mRNA levels of ATase1 (transcription) (ATase1 mRNA): marked activation of transcription
acetylation and stabilization of BACE1 (BACE1): increased acetylation and stabilization of BACE1
